# Experimental data from paper PMC9317316, “Synthesis and Evaluation of Some New 4H-Pyran Derivatives as Antioxidant, Antibacterial and Anti-HCT-116 Cells of CRC, with Molecular Docking, Antiproliferative, Apoptotic and ADME Investigations” (Pharmaceuticals, 2022).
# Experiments:
# S. enteric (ATCC 43972) = experiment: Antibacterial agar diffusion method (inhibition zone); type: cell-based
# Summary of the method: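 Agar diffusion: compounds applied to top agar seeded with the strain, inhibition zone measured; ampicillin (10 µg/well) as reference. Viability: 2 ×10^7 CFU/mL in BHI shaken with compound 60 min at 37 °C, serially diluted, plated, colonies counted after 24 h at 37 °C; IC50 from residual CFU, mean of three.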
# [1] = tested on: CDK2 gene in HCT-116 cells; experiment: qRT-PCR expression profile of the CDK2 gene in HCT-116 cells; type: cell-based, human; conditions: 24 h, relative to untreated cells (given as decreased x-fold)
# Protocol: Second, the expression profiles of the CDK2 gene in HCT-116 cells treated with compounds 4d and 4k were determined. The results were compared with the positive control (cells treated with the well-known cytotoxic drug 5-fluorouracil) and the negative control (untreated cells).
# Primers specific for the cyclin-dependent kinase-2 (CDK2) and caspase-3 genes were designed using primer blast (https://www.ncbi.nlm.nih.gov/tools/primer-blast/, accessed on 31 October 2021) or primer3 (https://primer3.ut.ee/, accessed on 31 October 2021) software. The selected genes covered the two main groups of the cyclin-dependent kinase-2 (CDK2) gene and the caspase-3 gene. Primers were used in RT-qPCR analysis to amplify fragments of 100–200 bp in length (Table 7).
# Total RNA was extracted from each cell culture flask using the RNeasy extraction kit (RNeasy micro kit, cat. no. 74004). Up to 1 × 10^6 cells, depending on the cell line, were disrupted in buffer RLT and homogenized and disrupted. Ethanol was then added to the lysate, creating conditions that promote the selective binding of RNA to the RNeasy membrane. […] The amount of extracted RNA was quantified by estimating the absorbance at 260 nm. The purity of the RNA was checked by measuring the ratio of the absorbance at 260 and 280 nm, where a ratio ranging from 1.8 to 2.0 was taken to be pure. […]
# (§1) Quantitative real-time PCR was carried out with the Thermal Cycler Rotorgene Real-Time System II (Rotorgene, South Korea) with the SYBR kit. […]
# The relative expression levels through the average cycle threshold (CT) were successfully detected. Average CT values were calculated from the triplicate experiment conducted for each gene; the CT value was detected by subtracting the average CT value of genes from the CT value of actin and GAPDH genes. The relative expression levels of the target genes were calculated using the ΔΔ Ct method and the reference genes GAPDH for the cancer cell line. Finally, a fold change equation […] was used to estimate relative expression levels, while the standard deviation was calculated from the replicated experimental data.
# [2] = tested on: caspase-3 gene in HCT-116 cells; experiment: qRT-PCR expression profile of the caspase-3 gene in HCT-116 cells; type: cell-based, human; set-up: dose or concentration left out as unconfirmed; conditions: 24 h, as compared to the negative control
# Text: Normally, apoptosis, or programmed cell death, is considered as a safeguard mechanism for managing stress and maintaining tissue homeostasis. It proceeds through a series of well-ordered biochemical cascades of events, which are regulated by a network of proteins. However, due to genetic and epigenetic mutations, deregulation of these proteins occurs, which results in evasion of apoptosis. This oncogenic transformation is a hallmark of human cancer, and it contributes to other tumorigenic events, including uncontrolled growth, accumulation of further genetic mutations, tumor angiogenesis and metastasis and chemotherapeutic resistance. Therefore, reinitiating selective cancer cell death is a fundamental goal in anticancer drug development. Research in cancer biology has provided fundamental insights into the apoptotic pathways and their deregulation in colon cancer. Moreover, it has identified the molecular targets for reinitiating selective tumor cell death, including antiapoptotic Bcl-2 family proteins, apoptosis inhibitors and activators of the TRAIL death receptor signaling pathway, as well as other apoptotic markers, such as caspases. Among the caspases, which play critical roles in apoptosis, are the initiators, including caspases-8 or 9, and the effectors, including caspase-3 and caspase-7. […] Thus, the real-time quantitative PCR analyses of caspase-3-gene levels following treatment with compounds 4d and 4K at a concentration […] for 24 h, were performed to investigate their potential as proapoptotic agents. […]
# Total RNA was extracted from each cell culture flask using the RNeasy extraction kit (RNeasy micro kit, cat. no. 74004). […] The amount of extracted RNA was quantified by estimating the absorbance at 260 nm. The purity of the RNA was checked by measuring the ratio of the absorbance at 260 and 280 nm, where a ratio ranging from 1.8 to 2.0 was taken to be pure. […]
# as §1
Structure (SMILES),IZ (mm) (S. enteric (ATCC 43972)),"CDK2 transcript level, fold [1] [fold]","caspase-3 gene transcription level, fold increase [2] [fold]"
"COc1cc(C2C(C#N)=C(N)OC(C)=C2C(=O)OCc2ccccc2)cc(OC)c1OC (centres unmarked) [4d, 6-Amino-5-cyano-2-methyl-4-(3,4,5-trimethoxy-phenyl)-4H-pyran-3-carboxylic acid benzyl ester]",7.0 ± 0.0,0.50,2.55
"CC1=C(C(=O)OCc2ccccc2)C(c2ccc(C#N)cc2)C(C#N)=C(N)O1 (centres unmarked) [4k, 6-Amino-5-cyano-4-(4-cyano-phenyl)-2-methyl-4H-pyran-3-carboxylic acid benzyl ester]",–,0.45,4.62
